Data from the supplement of paper PMC10307832.

Assays:
Assay in all cases: relative viability (nuclei count vs DMSO), 5 days (fraction); higher = more cells survive
[1] = compound: CCc1cnn2c(NCc3ccc[n+]([O-])c3)cc(N3CCCC[C@H]3CCO)nc12 [Dinaciclib] + CC(=O)Nc1cccc(-n2c(=O)n(C3CC3)c(=O)c3c(Nc4ccc(I)cc4F)n(C)c(=O)c(C)c32)c1 [Trametinib] (partner 0.02 µM)
How it was run: (§1)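 Relative viability equals treated-well nuclei counts divided by vehicle-well nuclei counts. Counts came from 4× images of lung cancer cell lines grown in 1536-well plates for 5 days after pin-tool dosing on the day after seeding. Dosing used one drug alone or a fixed anchor-drug dose plus five library-drug doses (not always all listed) in √10 steps, and values are medians of duplicate plates.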

[2] = compound: CCc1cnn2c(NCc3ccc[n+]([O-])c3)cc(N3CCCC[C@H]3CCO)nc12 [Dinaciclib] + CC1(C)CCC(c2ccc(Cl)cc2)=C(CN2CCN(c3ccc(C(=O)NS(=O)(=O)c4ccc(N[C@H](CCN5CCOCC5)CSc5ccccc5)c(S(=O)(=O)C(F)(F)F)c4)cc3)CC2)C1 [Navitoclax] (partner 0.5 µM)
How it was run: as §1

[3] = compound: CCc1cnn2c(NCc3ccc[n+]([O-])c3)cc(N3CCCC[C@H]3CCO)nc12 [Dinaciclib] + COc1cccc2cc(-c3nc([C@H]4CC[C@H](C(=O)O)CC4)n4ncnc(N)c34)[nH]c12 [OSI-027] (partner 0.5 µM)
How it was run: as §1

[4] = compound: CCc1cnn2c(NCc3ccc[n+]([O-])c3)cc(N3CCCC[C@H]3CCO)nc12 [Dinaciclib] + Cc1cc(Nc2cc(N3CCN(C)CC3)nc(Sc3ccc(NC(=O)C4CC4)cc3)n2)n[nH]1 [Tozasertib] (partner 0.1 µM)
How it was run: as §1

[5] = compound: CCc1cnn2c(NCc3ccc[n+]([O-])c3)cc(N3CCCC[C@H]3CCO)nc12 [Dinaciclib] + O=C(c1cc(Cc2n[nH]c(=O)c3ccccc23)ccc1F)N1CCN(C(=O)C2CC2)CC1 [Olaparib] (partner 8 µM)
How it was run: as §1

Cell Line	relative viability ([1]; first compound 0.009487 µM)	relative viability ([1]; first compound 0.03 µM)	relative viability ([1]; first compound 0.09487 µM)	relative viability ([1]; first compound 0.3 µM)	relative viability ([2]; first compound 0.009487 µM)	relative viability ([2]; first compound 0.03 µM)	relative viability ([2]; first compound 0.09487 µM)	relative viability ([2]; first compound 0.3 µM)	relative viability ([3]; first compound 0.009487 µM)	relative viability ([3]; first compound 0.03 µM)	relative viability ([3]; first compound 0.09487 µM)	relative viability ([3]; first compound 0.3 µM)	relative viability ([4]; first compound 0.009487 µM)	relative viability ([4]; first compound 0.03 µM)	relative viability ([4]; first compound 0.09487 µM)	relative viability ([4]; first compound 0.3 µM)	relative viability ([5]; first compound 0.009487 µM)	relative viability ([5]; first compound 0.03 µM)	relative viability ([5]; first compound 0.09487 µM)	relative viability ([5]; first compound 0.3 µM)
201T	0.821	0.675	0.249	0.228	1.31	1.19	0.416	0.32	0.801	0.297	0.119	0.183	0.915	0.293	0.274	0.263	0.991	0.34	0.225	0.223
A549					1.05	0.0352	0.038	0.0398									0.276	0.0567	0.0423	0.0382
A-427	0.624	0.117	0.109	0.115	0.94	0.434	0.089	0.0921	0.385	0.143	0.0922	0.0796	0.236	0.0917	0.0666	0.0775	0.459	0.104	0.0978	0.101
ABC-1									0.329	0.123	0.104	0.118	0.199	0.174	0.11	0.0868	0.807	0.316	0.272	0.252
BEN	1.44	0.981	0.349	0.291	0.102	0.0524	0.0833	0.0414	0.289	0.264	0.191	0.198	0.568	0.638	0.268	0.348	0.956	0.457	0.258	0.26
CAL-12T	0.187	0.0992	0.122	0.11	0.487	0.0619	0.0673	0.0743	0.235	0.136	0.118	0.124	0.166	0.0862	0.0939	0.0838	0.589	0.134	0.13	0.141
COR-L23	0.508	0.111	0.0846	0.0705	0.994	0.0863	0.066	0.0652	0.608	0.0953	0.0761	0.0902	0.214	0.0848	0.0671	0.0704	0.356	0.112	0.0765	0.0765
COR-L 105	0.41	0.327	0.35	0.329	0.496	0.213	0.214	0.218	0.51	0.232	0.224	0.234	0.369	0.304	0.25	0.208	0.957	0.391	0.312	0.269
ChaGo-K-1	0.856	0.25	0.14	0.102	0.541	0.219	0.173	0.17	0.499	0.186	0.128	0.119	0.22	0.168	0.132	0.111	0.371	0.145	0.0867	0.0975
EKVX	0.333	0.219	0.11	0.108	0.738	0.298	0.0814	0.106	0.694	0.59	0.204	0.105	0.398	0.253	0.074	0.0722	0.721	0.346	0.123	0.139
EMC-BAC-2	0.842	0.21	0.219	0.22	1.22	0.576	0.205	0.213	0.353	0.188	0.207	0.217	0.265	0.209	0.142	0.121	0.485	0.238	0.187	0.176
EPLC-272H	0.223	0.0654	0.0408	0.056	1.05	0.576	0.411	0.0616	0.288	0.152	0.0567	0.0523	0.229	0.0357	0.0443	0.0467	0.274	0.0455	0.0344	0.036
H3255	0.629	0.27	0.194	0.201	0.487	0.0787	0.0605	0.0759	0.593	0.394	0.279	0.226	0.678	0.578	0.256	0.218	0.536	0.253	0.2	0.19
HARA	0.519	0.213	0.114	0.111	1.04	0.0747	0.0574	0.0511	0.532	0.064	0.04	0.0478	0.105	0.0553	0.0492	0.0424	0.366	0.0835	0.0659	0.14
HCC-15	0.329	0.248	0.116	0.112	0.587	0.244	0.0855	0.0945	0.596	0.113	0.0869	0.107	0.407	0.0586	0.0549	0.0646	0.494	0.199	0.106	0.119
HCC-44	1.13	0.846	0.343	0.339	1.08	0.15	0.149	0.161	0.286	0.208	0.159	0.17	0.594	0.204	0.206	0.184	1.07	0.556	0.361	0.272
HCC-78	0.631	0.402	0.229	0.183	0.763	0.35	0.107	0.136	0.349	0.347	0.205	0.193	0.345	0.282	0.144	0.138	0.713	0.198	0.168	0.202
HCC-366	0.274	0.0898	0.0214	0.0233	1.01	0.11	0.0149	0.0168	0.924	0.0747	0.0323	0.0369	0.136	0.0294	0.0259	0.0198	0.174	0.032	0.0277	0.0241

Cell Line	relative viability ([1]; first compound 0.009487 µM)	relative viability ([1]; first compound 0.03 µM)	relative viability ([1]; first compound 0.09487 µM)	relative viability ([1]; first compound 0.3 µM)	relative viability ([2]; first compound 0.009487 µM)	relative viability ([2]; first compound 0.03 µM)	relative viability ([2]; first compound 0.09487 µM)	relative viability ([2]; first compound 0.3 µM)	relative viability ([3]; first compound 0.009487 µM)	relative viability ([3]; first compound 0.03 µM)	relative viability ([3]; first compound 0.09487 µM)	relative viability ([3]; first compound 0.3 µM)	relative viability ([4]; first compound 0.009487 µM)	relative viability ([4]; first compound 0.03 µM)	relative viability ([4]; first compound 0.09487 µM)	relative viability ([4]; first compound 0.3 µM)	relative viability ([5]; first compound 0.009487 µM)	relative viability ([5]; first compound 0.03 µM)	relative viability ([5]; first compound 0.09487 µM)	relative viability ([5]; first compound 0.3 µM)
HCC-827	0.511	0.186	0.12	0.135	1.02	0.699	0.127	0.108	0.887	0.565	0.129	0.116	0.417	0.251	0.101	0.117	0.631	0.123	0.116	0.117
HOP-62	0.492	0.361	0.0804	0.0808	0.967	0.126	0.0367	0.042	0.72	0.446	0.139	0.0825	0.293	0.13	0.0833	0.075	0.295	0.0722	0.0964	0.0667
IA-LM					0.695	0.0044	0.0033	0.0072									0.88	0.0461	0.0398	0.0287
LC-2-ad	0.921	0.405	0.148	0.15	0.401	0.0677	0.067	0.0747	0.58	0.251	0.247	0.227	0.363	0.242	0.19	0.219	0.495	0.162	0.13	0.133
LCLC-97TM1	0.216	0.0795	0.0706	0.0687	0.44	0.108	0.162	0.114	0.298	0.167	0.122	0.113	0.172	0.115	0.128	0.112	0.322	0.0664	0.0584	0.0621
LCLC-103H	0.674	0.659	0.255	0.249					0.451	0.483	0.111	0.109	0.487	0.315	0.0924	0.0865	0.775	0.361	0.227	0.198
LK-2	0.574	0.152	0.133	0.125	0.761	0.123	0.0967	0.102	0.218	0.196	0.16	0.131	0.2	0.154	0.151	0.168	0.615	0.0883	0.0805	0.0778
LOU-NH91	0.756	0.405	0.281	0.264	0.707	0.254	0.151	0.138	0.787	0.543	0.227	0.222	0.656	0.305	0.178	0.174	0.861	0.269	0.239	0.234
LU99A	0.511	0.14	0.127	0.146	0.363	0.13	0.126	0.121	0.284	0.202	0.153	0.144	0.247	0.142	0.143	0.148	0.199	0.112	0.117	0.125
NCI-H358	0.109	0.0821	0.0838	0.102					0.49	0.0844	0.0665	0.0776	0.103	0.0813	0.0924	0.0857	0.552	0.0825	0.086	0.105
NCI-H522	0.757	0.795	0.255	0.251					0.76	0.517	0.439	0.382	0.488	0.418	0.372	0.278	0.573	0.469	0.339	0.204
NCI-H650	0.964	0.189	0.122	0.13					0.57	0.203	0.158	0.15	0.493	0.183	0.154	0.153	0.382	0.13	0.12	0.104
NCI-H661	0.512	0.162	0.17	0.161					0.637	0.163	0.168	0.168	0.339	0.183	0.199	0.18	0.664	0.227	0.148	0.147
NCI-H1563									0.795	0.416	0.297	0.27								
NCI-H1703					1.19	0.117	0.0887	0.114									0.475	0.0997	0.0838	0.113
NCI-H1792	0.432	0.361	0.0776	0.0462	0.678	0.174	0.0483	0.0639	0.729	0.539	0.36	0.174					0.425	0.185	0.0516	0.0374
SW 900	0.805	0.477	0.177	0.155					0.578	0.103	0.0689	0.098	0.707	0.149	0.0868	0.0829	0.749	0.414	0.172	0.166
